Results reported in patent EP0943339A2, “Method of preventing allograft rejection” (priority 1998, dated 1999).

System: acute allograft rejection
Assay: murine cardiac ear pinna model of acute allograft rejection (non-vascularized cardiac tissue transplantation)
Format: in vivo
Settings: for Graft Survival Mean ± Std Dev: monotherapy, day 0 to 17
Source text: In Vivo Murine Cardiac Ear Pinnae Model of Transplatation
• Methods: A rapid, facile 2-week murine bioassay of non-vascularized cardiac tissue transplantation,t he murine cardiac ear pinna model of acute allograft rejection, was used to evaluate the dose-response relationship of immunosuppressive drugs on allograft rejection. In this model, donor BALB/C (N2^d) neonatal hearts are transplanted into recipient C3H/HeN (H2^k) ear pinna pouches without vacular anastomoses. […] All compounds are given on day 0 to 17 COMPOUND P [(+)-2-[3,4-dihydro(3S,4R)-4-hydroxy-3-(4-phenyl-phenylmethyl)-7-(2H, 1-benzopyran)]cyclopentane carboxylic acid] was given orally in 0.5% Methylcellulose. […] Grafts were assessed by visual examination for contraction on alternate days (from 6 to 18) and graft survival was defined as the post-transplant day on which contractions cease. Efficacy data from day 6 to 18 is presented as mean survival days (±SD) and was analyzed by Log Rank Analysis. Graft survival values were deterined at day 18. […] The studies were performed at Stanford Medical Ceter in a collaborative grant with Randall Morris, MD. […]

SMILES: C=CC[C@@H]1/C=C(\C)C[C@H](C)C[C@H](OC)[C@H]2O[C@@](O)(C(=O)C(=O)N3CCCC[C@H]3C(=O)O[C@H](/C(C)=C/[C@@H]3CC[C@@H](O)[C@H](OC)C3)[C@H](C)[C@@H](O)CC1=O)[C@H](C)C[C@@H]2OC (relative stereo) [FK506, [3S-[3R*[E(1S*,3S*,4S*)], 4S*, 5R*, 8S*, 9E, 12R*, 14R*, 15S*, 16R*, 18S*, 19S*, 26aR*]]-5,6,8,11,12,13,14,15,16,17,18,19,24,25,26,26a-Hexadeachydro-5,19-dihydroxy-3-[2-(4-hydroxy-3-[2-(4-hydroxy-3-methoxycyclohexyl)-1-methyl-ethenyl]-14,16-dimethoxy-4,10,12,18-tetramethyl-8-(2-propenyl)-15,19-epoxy-3H-pyrido[2,1-c][1,4]oxaazacyclotricosine-1,7,20,21(4H,23H)-tetrone]
- Graft Survival Mean ± Std Dev (FK506 0.2 mg/kg/d intraperitoneal, survival assessed to day 18): 11.6 ± 1.3 days
- Graft Survival Mean ± Std Dev (FK506 0.4 mg/kg/d intraperitoneal, survival assessed to day 18): 12.4 ± 0.9 days
- Graft Survival Mean ± Std Dev (FK506 0.6 mg/kg/d intraperitoneal, grafts surviving at day 18 censored): >16.9 ± 1.8 days
- Graft Survival Mean ± Std Dev (FK506 0.8 mg/kg/d intraperitoneal, grafts surviving at day 18 censored): >17.8 ± 0.6 days

SMILES: O=C(O)C1CCCC1c1ccc2c(c1)OC[C@H](Cc1ccc(-c3ccccc3)cc1)[C@H]2O (single isomer, unassigned; (+)) [COMPOUND P]
- efficacy as a single agent in acute rejection (highest dose, 300 mg/kg/d): significant (p<0.01)
- Graft Survival Mean ± Std Dev (COMPOUND P 30 mg/kg/d orally, survival assessed to day 18): 11.0 ± 1.1 days
- Graft Survival Mean ± Std Dev (COMPOUND P 100 mg/kg/d orally, survival assessed to day 18): 10.3 ± 0.7 days
- Graft Survival Mean ± Std Dev (COMPOUND P 200 mg/kg/d orally, survival assessed to day 18): 10.3 ± 0.7 days
- Graft Survival Mean ± Std Dev (COMPOUND P 300 mg/kg/d orally, survival assessed to day 18): 11.8 ± 1.1 days

SMILES: COc1c(C)c2c(c(O)c1C/C=C(\C)CCC(=O)O)C(=O)OC2 [MPA]
- Graft Survival Mean ± Std Dev (MPA 100 mg/kg/d, survival assessed to day 18): 13.6 ± 1.9 days
- Graft Survival Mean ± Std Dev (MPA 150 mg/kg/d, survival assessed to day 18): 16.6 ± 1.9 days
